Our source for the GI50 and TGI values is PubChem BioAssay (NCI).

Molecules are shown by their SMILES.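 Five compound concentrations were applied to cells in 96-well plates for 48 hours; endpoints were derived by simple linear interpolation of the resulting dose-response curve. At the GI50, growth is halved. The concentration for full growth arrest is given as TGI.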

Among the test systems are NCI-H460 lung; HCT-15 colon; BT-549 breast; A549 NSCLC; NCI-H23 lung; UO-31 renal; CAKI-1 renal; A498 renal; HS 578T breast; SK-MEL-28 melanoma.
Experiment in all cases: inhibition of tumour cell growth, NCI panel, 48 h

`Cn1c(COC(=O)NCCc2ccccn2)nc2c(N3CCOCC3)nc(Cl)nc21`: the GI50 is 1620 nM in the test on NCI-H460 lung; 1140 nM with HCT-15 colon; 1710 nM with BT-549 breast; 1850 nM with A549 NSCLC; 2000 nM in the test with NCI-H23 lung; 1190 nM with UO-31 renal. Further, the GI50 with CAKI-1 renal was 974 nM; in the test on A498 renal, 1530 nM; with HS 578T breast, 2000 nM; in the test with SK-MEL-28 melanoma, 1700 nM. Besides, the TGI in the test with NCI-H460 lung was 3630 nM; in the test on HCT-15 colon, 3200 nM; in the test with BT-549 breast, 4060 nM; with A549 NSCLC, 5960 nM; with NCI-H23 lung, 4700 nM; in the test with UO-31 renal, 2450 nM. The TGI in the test on CAKI-1 renal was found to be 2160 nM; in the test on A498 renal it was 6360 nM; in the test with HS 578T breast it was 6220 nM; with SK-MEL-28 melanoma, 3470 nM.

Consider `CCC[CH2][Sn-]([CH2]CCC)([CH2]CCC)[O]C(=O)C(C)C`, for which the GI50 was 57.1 nM with NCI-H460 lung; 117 nM in the test on HCT-15 colon; 135 nM in the test with BT-549 breast; 130 nM in the test on A549 NSCLC; 115 nM in the test with NCI-H23 lung; 158 nM in the test with UO-31 renal. The GI50 in the test on CAKI-1 renal was 122 nM; with A498 renal it was 153 nM; with HS 578T breast, 354 nM; with SK-MEL-28 melanoma it was 182 nM. Besides, the TGI is 197 nM in the test on NCI-H460 lung; 249 nM with HCT-15 colon; 312 nM in the test on BT-549 breast; 267 nM with A549 NSCLC; 310 nM with NCI-H23 lung; 312 nM in the test on UO-31 renal. The TGI worked out at 279 nM with CAKI-1 renal, 286 nM in the test with A498 renal, 1920 nM with HS 578T breast and 329 nM with SK-MEL-28 melanoma.

`Cn1c(COC(=O)NCCn2ccnc2)nc2c(N3CCOCC3)nc(-c3ccccc3)nc21`: the GI50 with NCI-H460 lung was 1420 nM; with HCT-15 colon it was 193 nM; in the test on BT-549 breast, 737 nM; with A549 NSCLC, 1430 nM; in the test on NCI-H23 lung, 1520 nM; with UO-31 renal, 441 nM. Also, the GI50 is 343 nM with CAKI-1 renal, 1250 nM with A498 renal, 1060 nM in the test with HS 578T breast and 1330 nM with SK-MEL-28 melanoma. The TGI in the test with NCI-H460 lung is 2910 nM; with HCT-15 colon it was 484 nM; with BT-549 breast it was 2040 nM; in the test with A549 NSCLC, 3380 nM; in the test on NCI-H23 lung, 3080 nM; in the test with UO-31 renal it was 1740 nM. In addition, the TGI with CAKI-1 renal was 1550 nM; with A498 renal it was 2530 nM; with HS 578T breast, 3590 nM; with SK-MEL-28 melanoma it was 2620 nM.

As for `COc1ccc2[nH]c(C(=O)N3CCN(C(=O)OCc4ccc5c(Cl)cc(Cl)c(O)c5n4)CC3)cc2c1`, the GI50 with NCI-H460 lung was 1180 nM; with HCT-15 colon, 368 nM; with BT-549 breast, 1040 nM; in the test on A549 NSCLC it was 1550 nM; with NCI-H23 lung it was 1700 nM; in the test on UO-31 renal it was 1010 nM. The GI50 in the test with CAKI-1 renal is 357 nM; in the test with A498 renal, 1590 nM; with HS 578T breast, 1870 nM; in the test on SK-MEL-28 melanoma, 1580 nM. For the same compound, the TGI in the test with NCI-H460 lung turned out to be 2760 nM; with HCT-15 colon, 1590 nM; with BT-549 breast, 2340 nM; in the test on A549 NSCLC it was 3390 nM; in the test on NCI-H23 lung, 3470 nM; in the test with UO-31 renal it was 2170 nM. The TGI with CAKI-1 renal came out at 1650 nM; in the test with A498 renal, 2990 nM; with HS 578T breast, 6070 nM; with SK-MEL-28 melanoma it was 2940 nM.

Regarding `COc1ccc(-c2ccc(OC)c(OC)c2OC)cc1`, the GI50 in the test on NCI-H460 lung is 2700 nM; in the test on HCT-15 colon it was 766 nM; in the test on BT-549 breast it was 1570 nM; with A549 NSCLC it was 5740 nM; in the test on NCI-H23 lung, 4190 nM; with UO-31 renal, 4600 nM. The GI50 in the test on CAKI-1 renal is 1770 nM; with A498 renal, 2270 nM; in the test with HS 578T breast, 1820 nM; with SK-MEL-28 melanoma, 14900 nM. Moreover, the TGI with NCI-H460 lung was > 48000 nM; in the test with HCT-15 colon, > 100000 nM; in the test with BT-549 breast, > 62600 nM; in the test on A549 NSCLC, > 100000 nM; in the test on NCI-H23 lung it was > 100000 nM; in the test with UO-31 renal it was > 100000 nM. In addition, the TGI with CAKI-1 renal was > 100000 nM; in the test on A498 renal, > 31200 nM; in the test on HS 578T breast, > 23100 nM; in the test with SK-MEL-28 melanoma, > 100000 nM.

Take `Nc1cc2c3c(cccc3c1)C(=O)N(CCN1CCCC1)C2=O`: the GI50 in the test on NCI-H460 lung is 666 nM; in the test with HCT-15 colon, 2020 nM; in the test on BT-549 breast, 6490 nM; with A549 NSCLC, 1790 nM; with NCI-H23 lung, 3330 nM; in the test on UO-31 renal, 2350 nM. In addition, the GI50 in the test with CAKI-1 renal is 1430 nM; with A498 renal, 2540 nM; in the test with HS 578T breast, 4830 nM; with SK-MEL-28 melanoma, 4280 nM. Besides, the TGI in the test on NCI-H460 lung was > 24500 nM; with HCT-15 colon, > 100000 nM; in the test with BT-549 breast, 29800 nM; in the test with A549 NSCLC, > 100000 nM; in the test with NCI-H23 lung, 22800 nM; in the test on UO-31 renal, > 100000 nM. Further, the TGI in the test on CAKI-1 renal turned out to be 5830 nM; in the test on A498 renal, 7890 nM; in the test with HS 578T breast, 35000 nM; with SK-MEL-28 melanoma, 18200 nM.

For the compound `Clc1ccccc1C(Nc1cnccn1)Nc1cnccn1`, the TGI in the test with NCI-H460 lung, in the test with HCT-15 colon, with BT-549 breast, in the test on A549 NSCLC, in the test with NCI-H23 lung and with UO-31 renal was > 100000 nM in each case. Moreover, the TGI with CAKI-1 renal, in the test on A498 renal, in the test with HS 578T breast and with SK-MEL-28 melanoma was > 100000 nM in each case.
